Consider seven compounds from BindingDB's records for doi:10.1016/j.bmcl.2008.12.062 (Bristol-Myers Squibb, 2009).

The IC50 is the concentration that gives 50% inhibition.

The nature of the experiment: Antagonist activity at CCR2 in human PBMCs assessed as inhibition of MCP1-induced chemotaxis.
As to `CSc1ccc(C(=O)NC2CC(N)CCC2NC(=O)CNC(=O)c2cc(C(F)(F)F)ccc2N)cc1` (racemic) [(+/-)-2-amino-N-(2-(4-amino-2-(4-(methylthio)benzamido)cyclohexylamino)-2-oxoethyl)-5-(trifluoromethyl)benzamide], the IC50 was found to be 13.5 nM.

For `Cc1ccc(CNC2CC(N(C)C)CCC2NC(=O)CNC(=O)c2cccc(C(F)(F)F)c2)cc1` (racemic) [(+/-)-N-(2-(4-(dimethylamino)-2-(4-methylbenzylamino)cyclohexylamino)-2-oxoethyl)-3-(trifluoromethyl)benzamide], the IC50 is 12.6 nM.

With `CSc1ccc(C(=O)NC2CC(NC(=O)OCc3ccccc3)CCC2NC(=O)CNC(=O)c2cccc(C(F)(F)F)c2)cc1` (racemic) [(+/-)-benzyl3-(4-(methylthio)benzamido)-4-(2-(3-(trifluoromethyl)benzamido)acetamido)cyclohexylcarbamate], the IC50 was determined as 5.1 nM.

For the compound `CC(=O)Nc1ccc(CNC2CC(N(C)C)CCC2NC(=O)CNC(=O)c2cccc(C(F)(F)F)c2)cc1` (racemic) [(+/-)-N-(2-(2-(4-acetamidobenzylamino)-4-(dimethylamino)cyclohexylamino)-2-oxoethyl)-3-(trifluoromethyl)benzamide], the IC50 stood at 17.4 nM.

Regarding `CSc1ccc(CNC2CC(N(C)C)CCC2NC(=O)CNC(=O)c2cccc(C(F)(F)F)c2)cc1` (racemic) [(+/-)-N-(2-(4-(dimethylamino)-2-(4-(methylthio)benzylamino)cyclohexylamino)-2-oxoethyl)-3-(trifluoromethyl)benzamide], the IC50 came to 22.5 nM.

Consider `CN(C)C1CCC(NC(=O)CNC(=O)c2cccc(C(F)(F)F)c2)C(NCc2ccc3[nH]ccc3c2)C1` (racemic) [(+/-)-N-(2-(2-((1H-indol-5-yl)methylamino)-4-(dimethylamino)cyclohexylamino)-2-oxoethyl)-3-(trifluoromethyl)benzamide], for which the IC50 was determined as 23 nM.

Turning to `COc1ccc(CNC2CC(N(C)C)CCC2NC(=O)CNC(=O)c2cccc(C(F)(F)F)c2)cc1` (racemic) [(+/-)-N-(2-(4-(dimethylamino)-2-(4-methoxybenzylamino)cyclohexylamino)-2-oxoethyl)-3-(trifluoromethyl)benzamide], the IC50 came out at 41.4 nM.
